# According to PMC3723878 (PLoS ONE, 2013):
# Residue numbers refer to the chain shown, from its start.
# Experiments:
# Experiment in all cases: Saturation binding of ^125I-HEAT
# [1] = biological target: T1, human α1A-AR F187A variant (Homo sapiens, UniProt P35348, F187A)
# T1 construct: expressed in transfected cells; host or cells: COS-7, transient (calcium phosphate)
# T1 sequence (P35348 1-466 F187A): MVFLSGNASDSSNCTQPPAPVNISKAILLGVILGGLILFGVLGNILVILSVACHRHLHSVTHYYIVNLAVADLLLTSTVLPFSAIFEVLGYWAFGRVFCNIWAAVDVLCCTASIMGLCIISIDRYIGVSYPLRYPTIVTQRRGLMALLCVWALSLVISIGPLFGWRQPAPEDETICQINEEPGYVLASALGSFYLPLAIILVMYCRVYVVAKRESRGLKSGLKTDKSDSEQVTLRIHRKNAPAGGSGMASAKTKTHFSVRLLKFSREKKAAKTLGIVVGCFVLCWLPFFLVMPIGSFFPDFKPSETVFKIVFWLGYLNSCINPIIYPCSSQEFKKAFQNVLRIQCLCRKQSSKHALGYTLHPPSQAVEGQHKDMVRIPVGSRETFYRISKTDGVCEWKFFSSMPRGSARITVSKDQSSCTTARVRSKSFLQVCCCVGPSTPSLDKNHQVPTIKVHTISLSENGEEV
# [2] = biological target: T2, human α1A-AR F193A variant (Homo sapiens, UniProt P35348, F193A)
# T2 construct: expressed in transfected cells; host or cells: COS-7, transient (calcium phosphate)
# T2 sequence (P35348 1-466 F193A): T1 sequence (P35348 1-466 F187A) with A187F, F193A
# [3] = biological target: T3, human α1A-AR F288A variant (Homo sapiens, UniProt P35348, F288A)
# T3 construct: expressed in transfected cells; host or cells: COS-7 (transient, calcium phosphate), membranes
# T3 sequence (P35348 1-466 F288A): T1 sequence (P35348 1-466 F187A) with A187F, F288A
smiles,measurement,setting,value
O=C1c2ccccc2CCC1CNCCc1ccc(O)c([125I])c1 (centres unmarked) [125I-HEAT],^125I-HEAT Ratio (loss of affinity relative to WT),[1]; F187A,0.22 ^*
same,^125I-HEAT pKd,"[1]; F187A (5.41), saturation binding, n = 3–6",10.70±0.01
same,^125I-HEAT Ratio (loss of affinity relative to WT),[2],2.8
same,^125I-HEAT Ratio (loss of affinity relative to WT),[3]; F288A,1.3
same,^125I-HEAT pKd,"[3]; F288A (6.51), saturation binding, n = 3–6",9.92±0.12
